Data reported in patent publication US8722376B2, “Firefly luciferase” (Olympus Corporation, priority 2011, dated 2014).

Target: T1, GL3 (luciferase derived from a known firefly) (Photinus pyralis, UniProt P08659, K549A/L550V/N119G/N50D/S548I)
T1 construct: measured as purified protein in a similar manner to SP1
Assay: Km of GL3 luciferase (luminescence kinetic analysis)
Format: biochemical
Conditions: read-out: Km for ATP; 0.1 M Tris-HCl (pH 8.0), D-luciferin, MgSO4; measured in a similar manner

T1 sequence (P08659 whole entry N50D/N119G/S548I/K549A/L550V): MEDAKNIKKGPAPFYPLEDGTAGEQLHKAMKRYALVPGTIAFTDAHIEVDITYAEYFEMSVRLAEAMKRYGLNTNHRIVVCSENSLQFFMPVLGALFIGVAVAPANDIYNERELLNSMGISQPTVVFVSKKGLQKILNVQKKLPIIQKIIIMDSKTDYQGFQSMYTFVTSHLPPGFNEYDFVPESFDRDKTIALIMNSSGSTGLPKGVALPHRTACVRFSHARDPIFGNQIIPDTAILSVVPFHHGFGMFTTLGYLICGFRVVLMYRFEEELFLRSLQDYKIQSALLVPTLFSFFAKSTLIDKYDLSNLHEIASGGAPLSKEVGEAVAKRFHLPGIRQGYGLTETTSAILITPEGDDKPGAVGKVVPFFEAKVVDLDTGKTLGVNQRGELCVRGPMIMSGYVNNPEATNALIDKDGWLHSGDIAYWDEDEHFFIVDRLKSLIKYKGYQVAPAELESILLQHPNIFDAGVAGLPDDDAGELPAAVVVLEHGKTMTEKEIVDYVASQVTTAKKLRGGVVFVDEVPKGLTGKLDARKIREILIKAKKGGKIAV

**Q.** How did the Km turn out when `Nc1ncnc2c1ncn2[C@@H]1O[C@H](COP(=O)(O)OP(=O)(O)OP(=O)(O)O)[C@@H](O)[C@H]1O` [ATP] was run?
**A.** 71.3 µM
